From publication PMC9421656, “Beyond Retigabine: Design, Synthesis, and Pharmacological Characterization of a Potent and Chemically Stable Neuronal Kv7 Channel Activator with Anticonvulsant Activity” (Journal of Medicinal Chemistry, 2022)

Target: Kv7.2/Kv7.3 channels (Homo sapiens, UniProt O43525+O43526)
Test: FluxOR thallium-sensitive fluorescence-based assay in CHO cells stably expressing Kv7.2 + Kv7.3
Assay type: cell-based
Design: expressed in transfected cells
Details: 10 μM; for Kv7 opening activity (in words): compared with retigabine or the reference compound of the subseries; for Slope of the fluorescent signal at 10 μM: initial slope of FluxOR signal between 5 and 15 s, mean ± SEM
Method: While assay robustness in Kv7.2/Kv7.3-expressing cells was high (Z′ factor > 0.5),[27] the Z′ factor calculated in CHO cells expressing Kv7.2 subunits alone was <0.5; thus, all subsequent pharmacological screens were performed in Kv7.2/Kv7.3-expressing cells. […] The Kv7.2/Kv7.3-stable cell line was generated using a plasmid-based PiggyBac transposon system that enables genomic integration of multiple independent transposons containing distinct cDNA sequences. cDNAs for KCNQ2 and KCNQ3 genes (encoding for Kv7.2 and Kv7.3, respectively) were cloned into two different PiggyBac expression vectors (pB-CMV-MCS-EF1α-RedPuro, System Biosciences), and these two plasmids, together with a plasmid encoding for the transposase (System Biosciences), were transfected into CHO cells using Lipofectamine 2000 (Invitrogen) as indicated in the protocol provided by the seller company.
The selected clone stably expressing Kv7.2/Kv7.3 channels was grown in DMEM supplemented with 10% FBS, 50 U/mL Pen-Strep, 2 mM L-glutamine (all purchased from Gibco), and 4 μg/mL puromycin (Sigma) in a humidified atmosphere at 37 °C with 5% CO2. […] A kinetic dispense microplate reader (FLUOstar Optima) was used to read the plate, setting the excitation filter at 485 nm and the emission filter at 520 nm; “Stimulus buffer” prepared as indicated in the protocol was automatically added to wells after 5 s of recording; the plate was read every 1 s, for 50 s. The results were analyzed using Optima Data Analysis and Microsoft Excel.
Only experiments resulting in a Z′ > 0.5 were considered. Data shown (Figures 1D,E,F,G and 3B) were obtained from at least three independent experiments.
Data were analyzed using the GraphPad Prism 8.0.2 (GraphPad Software, LaJolla, CA). Statistically significant differences in the initial slope of the curves were evaluated through ordinary one-way ANOVA, and multiple comparisons were corrected with the Tukey test. […] Indicated EC50 values are the mean of at least three independent experiments ± standard error of the mean (SEM).

Compound	Kv7 opening activity (in words)	Slope of the fluorescent signal at 10 μM
CCCCCCC(=O)Nc1ccc(NCc2ccc(C(F)(F)F)cc2)cc1 [compound 2, N-(4-((4-(Trifluoromethyl)benzyl)amino)phenyl)heptanamide]	still active although with slightly lower efficacy	0.0326±0.0063
CCCCCCCCCC(=O)Nc1ccc(NCc2ccc(C(F)(F)F)cc2)cc1N [compound 15, N-(2-Amino-4-((4-(trifluoromethyl)benzyl)amino)phenyl)decanamide]	progressive decrease in Kv7 opening ability	0.0261±0.0030
CCCCCCCCCCCC(=O)Nc1ccc(NCc2ccc(C(F)(F)F)cc2)cc1N [compound 16, N-(2-Amino-4-((4-(trifluoromethyl)benzyl)amino)phenyl)dodecanamide]	progressive decrease in Kv7 opening ability	0.0084±0.0004
Nc1cc(NCc2ccc(C(F)(F)F)cc2)ccc1NC(=O)C1CC1 [compound 18, N-(2-Amino-4-((4-(trifluoromethyl)benzyl)amino)phenyl)cyclopropanecarboxamide]	–	0.0346±0.0078
COCCOCC(=O)Nc1ccc(NCc2ccc(C(F)(F)F)cc2)cc1N [compound 20, N-(2-Amino-4-((4-(trifluoromethyl)benzyl)amino)phenyl)-2-(2-methoxyethoxy)acetamide]	complete loss of activity	0.0062±0.0005
CCCCCCC(=O)Nc1ccc(N(CCC)Cc2ccc(C(F)(F)F)cc2)cc1N [compound 27, N-(2-Amino-4-(propyl(4-(trifluoromethyl)benzyl)amino)phenyl)heptanamide]	did not improve activity	0.0363±0.0052
CCCCCCC(=O)Nc1ccc(N(Cc2ccc(C(F)(F)F)cc2)C(C)=O)cc1N [compound 28, N-(2-Amino-4-(N-(4-(trifluoromethyl)benzyl)acetamido)phenyl)heptanamide]	markedly reduced activity	0.0138±0.0024
CCCCCCC(=O)Nc1ccc(OCc2ccc(C(F)(F)F)cc2)cc1N [compound 31, N-(2-Amino-4-((4-(trifluoromethyl)benzyl)oxy)phenyl)heptanamide]	failed to activate Kv7.2/ Kv7.3 channels	0.0057±0.0005
CCCCCCC(=O)Nc1ccc(NCCc2ccc(F)cc2)cc1N [compound 42, N-(2-Amino-4-((4-fluorophenethyl)amino)phenyl)heptanamide]	complete loss of activity	0.0098±0.0010
CCCCCCC(=O)Nc1ccc(NCc2ccccn2)cc1N [compound 47, N-(2-Amino-4-((pyridin-2-ylmethyl)amino)phenyl)heptanamide]	complete loss of activity	0.0071±0.0004
CCCCCCC(=O)Nc1ccc(NCc2ccncc2)cc1N [compound 51, N-(2-Amino-4-((pyridin-4-ylmethyl)amino)phenyl)heptanamide]	complete loss of activity	0.0063±0.0002
CCCCCCC(=O)Nc1ccc(NCc2ccc(O)cc2)cc1N [compound 57, N-(2-Amino-4-((4-hydroxybenzyl)amino)phenyl)heptanamide]	complete loss of activity	0.0068±0.0003
CCCCCCC(=O)Nc1ccc(NCc2ccc(C(F)(F)F)cc2)c(F)c1N [compound 59, N-(2-Amino-3-fluoro-4-((4-(trifluoromethyl)benzyl)amino)phenyl)heptanamide]	similar	0.0345±0.0026
